# Values joined by “and” are separate entries in the source; they are usually repeats but may differ in a detail not shown here. Equal values may be shown once. Read-outs that look alike come from different tables or passages of the source.
# Tests used:
# [1] = test system: S. mansoni juvenile worms (21 days); assay: Schistosomicidal activity ex vivo, juvenile worms (21 days); format: cell-based
# Protocol: Three-week old, female Swiss-Webster mice obtained from the Charles River were housed in the Comparative Research Center of Rush University Medical Center. Mice were infected by percutaneous tail exposure to about 200 S. mansoni or 50 S. japonicum cercaria for adult worms and about 1000 cercaria for juvenile S. mansoni worms through natural transdermal penetration of the cercariae for 1 h[81].
# DMSO formulated compounds were diluted with phenol red free M199 medium or RPMI medium for NTS or juvenile and adult worms, respectively, at <1% DMSO final concentrations. NTS, juvenile and adult worms from overnight cultures were tested against compounds in triplicate. Controls were treated with DMSO alone or 5 µM AF as a positive control in appropriate medium. […] Schistosome viabilities in the presence of the compounds were assessed using this formula: % Viability = Averages of Test / Averages of DMSO Control x 100.
# BmTrxR = BmTrxR (Brugia malayi, UniProt A0A1I9G0T9); assay: B. malayi TrxR enzyme inhibition; format: biochemical
# In short: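 Recombinant, purified BmTrxR in a DTNB reduction assay: reaction started with an equal volume of DTNB (6 mM) and NADPH (100 µM), and the A412 increase over the first 3 min recorded. Run in triplicate; IC50 from curve fitting.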
# PfTrxR = biological target: T1, PfTrxR (Plasmodium falciparum, UniProt Q25861); assay: P. falciparum TrxR enzyme inhibition; format: biochemical
# T1 construct: 6-His (N); made in house; host or cells: E. coli BL21 (DE3)
# T1 sequence (Q25861 1-541): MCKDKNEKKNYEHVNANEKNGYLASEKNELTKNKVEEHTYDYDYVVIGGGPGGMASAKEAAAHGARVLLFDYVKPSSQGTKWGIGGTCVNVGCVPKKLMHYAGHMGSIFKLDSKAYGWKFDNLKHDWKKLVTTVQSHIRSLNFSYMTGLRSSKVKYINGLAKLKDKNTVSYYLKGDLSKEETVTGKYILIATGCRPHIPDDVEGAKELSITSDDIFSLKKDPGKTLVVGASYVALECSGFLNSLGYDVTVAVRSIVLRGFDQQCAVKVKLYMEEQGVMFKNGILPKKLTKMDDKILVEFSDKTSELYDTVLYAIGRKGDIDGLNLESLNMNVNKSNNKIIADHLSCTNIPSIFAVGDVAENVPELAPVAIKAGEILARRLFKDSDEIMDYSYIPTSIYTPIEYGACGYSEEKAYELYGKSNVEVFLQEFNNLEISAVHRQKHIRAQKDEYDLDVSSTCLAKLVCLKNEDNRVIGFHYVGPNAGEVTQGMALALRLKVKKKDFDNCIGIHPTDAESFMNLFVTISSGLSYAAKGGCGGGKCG
# TGR = biological target: T2, TGR (Schistosoma mansoni, UniProt Q962Y6); assay: Reversibility by jump dilution; format: biochemical
# T2 construct: made in house
# T2 sequence (Q962Y6 1-598): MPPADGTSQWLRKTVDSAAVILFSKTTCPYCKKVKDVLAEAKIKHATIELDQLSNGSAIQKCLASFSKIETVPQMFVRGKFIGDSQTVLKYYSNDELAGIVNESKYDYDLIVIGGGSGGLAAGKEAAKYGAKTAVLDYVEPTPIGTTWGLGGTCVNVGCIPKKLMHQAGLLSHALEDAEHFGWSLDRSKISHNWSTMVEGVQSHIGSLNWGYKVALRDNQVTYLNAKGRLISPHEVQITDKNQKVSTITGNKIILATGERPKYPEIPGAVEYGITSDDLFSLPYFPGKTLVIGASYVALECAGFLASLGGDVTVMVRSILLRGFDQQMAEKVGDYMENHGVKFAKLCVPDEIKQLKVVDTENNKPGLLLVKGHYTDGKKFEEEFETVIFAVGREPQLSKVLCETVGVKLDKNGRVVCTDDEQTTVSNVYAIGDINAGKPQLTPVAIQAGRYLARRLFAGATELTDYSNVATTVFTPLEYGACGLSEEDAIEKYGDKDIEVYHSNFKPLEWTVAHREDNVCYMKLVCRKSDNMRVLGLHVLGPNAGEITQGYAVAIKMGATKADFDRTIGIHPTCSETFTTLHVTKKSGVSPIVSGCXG
# Protocol: A reaction of 370 nM TGR, 100 µM NADPH, and 250 µM inhibitor was incubated for 15 min at room temperature. A 100x dilution of the reaction was made and the activity was determined immediately and after 60 min.
# [2] = D0: diluted 1:100, activity determined immediately, list for plotting
# [3] = D60: diluted 1:100, activity determined after 60 min, list for plotting
# [4] = before dilution (-15), list for plotting
# Chain of BmTrxR (A0A1I9G0T9 entry or part of it, added parts left off): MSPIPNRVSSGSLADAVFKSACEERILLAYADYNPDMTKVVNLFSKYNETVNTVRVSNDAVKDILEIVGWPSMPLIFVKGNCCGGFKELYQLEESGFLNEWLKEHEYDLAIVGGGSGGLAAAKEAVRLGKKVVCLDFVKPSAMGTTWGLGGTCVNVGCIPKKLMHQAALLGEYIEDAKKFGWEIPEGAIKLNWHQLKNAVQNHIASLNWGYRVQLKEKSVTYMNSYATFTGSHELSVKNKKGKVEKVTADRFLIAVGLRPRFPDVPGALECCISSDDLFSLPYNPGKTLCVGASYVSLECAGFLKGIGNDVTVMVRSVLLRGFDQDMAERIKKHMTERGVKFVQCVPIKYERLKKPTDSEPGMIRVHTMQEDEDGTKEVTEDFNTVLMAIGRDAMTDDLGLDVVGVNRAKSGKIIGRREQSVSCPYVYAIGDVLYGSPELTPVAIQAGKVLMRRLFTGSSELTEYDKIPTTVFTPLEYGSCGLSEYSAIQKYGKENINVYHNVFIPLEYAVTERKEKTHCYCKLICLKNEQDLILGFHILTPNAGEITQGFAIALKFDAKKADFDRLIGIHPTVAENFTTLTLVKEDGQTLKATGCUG
compound,measurement,setting,value
Cc1oc(-c2ccc3ccccc3c2)nc1CNC1CCCCCC1 [Compound 5],viability at 5 µM,"[1]; Schistosoma mansoni, 23 day S. mansoni worms, 48 HR, Conc. 5 µM",65.4%
same,viability at 15 µM,"[1]; Schistosoma mansoni, 23 day S. mansoni worms, 48 HR, Conc. 15 µM",52.1%
same,viability at 30 µM,"[1]; Schistosoma mansoni, 23 day S. mansoni worms, 48 HR, Conc. 30 µM",36.8%
same,LD50 ex vivo S. mansoni 21 days,"[1]; juvenile worms, 48 h exposure",16.9 ± 2.80 µM
same,inhibition at 10 µM,"BmTrxR; BmTrxR, 10 µM compound, mean of 3 replicates, read-out: % inhibition",-0.384%
same,inhibition at 25 µM,"BmTrxR; BmTrxR, 25 µM compound, mean of 3 replicates, read-out: % inhibition",3.27%
same,inhibition at 50 µM,"BmTrxR; BmTrxR, 50 µM compound, mean of 3 replicates, read-out: % inhibition",9.07%
same,inhibition at 50 µM,"BmTrxR; read-out: BmTrxR % inhibition at 50 µM, 50 µM, the highest concentration tested",9%
same,inhibition at 10 µM,PfTrxR,-1.11%
same,inhibition at 25 µM,PfTrxR,-0.0146%
same,inhibition at 50 µM,PfTrxR,-1.37%
same,PfTrxR % inhibition at 50 µM,"PfTrxR; 50 µM, the highest concentration tested",n.i.
same,"% Activity (ID list), D0",TGR; [2],94.7% and 95.5% and 104.1%
same,"% Inhibition (ID list), D0",TGR; [2],5.3% and 4.5% and -4.1%
same,"% Activity (ID list), D60",TGR; [3],114.3% and 110.2%
same,"% Inhibition (ID list), D60",TGR; [3],-11.2% and -14.3% and -10.2%
same,"Inhibitor (rate), 0 min","TGR; [0, D0]: 15 min preincubation inhibitor + TGR + NADPH, diluted 1:100, then activity determined immediately, raw rate",0.0437 and 0.04487 and 0.04514
same,"% Activity, 0 min","TGR; [0, D0]: 15 min preincubation inhibitor + TGR + NADPH, diluted 1:100, then activity determined immediately, relative to DMSO",94.6912% and 95.4681% and 104.129%
same,"Inhibitor (rate), 60 min","TGR; [60, D60]: 15 min preincubation inhibitor + TGR + NADPH, diluted 1:100, then activity determined after 60 min, raw rate",0.04807 and 0.05093 and 0.05141
same,"% Activity, 60 min","TGR; [60, D60]: 15 min preincubation inhibitor + TGR + NADPH, diluted 1:100, then activity determined after 60 min, relative to DMSO",111.196% and 114.27% and 110.156%
same,"Inhibitor (rate), -15","TGR; [-15]: 15 min preincubation inhibitor + TGR + NADPH, then activity determined, raw rate, replicates",0.01816 and 0.01807 and 0.01832
same,"% Activity, -15","TGR; [-15]: 15 min preincubation inhibitor + TGR + NADPH, then activity determined, relative to DMSO, replicates",52.6988% and 50.0277% and 51.6493%
same,% Activity (ID list),TGR; [4],52.7% and 50.0% and 51.6%
same,% Inhibition (ID list),TGR; [4],47.3% and 50.0% and 48.4%
